Reference: patent US20020009482A1, “Proenergetic food supplement based on NADH, octocosanol and vitamin E” (priority 2000, published 2002)

Assay: Test for the stabilizing activity of Vitamin E on NADH (acid degradation in water at pH 4, 32° C.)
Assay type: physicochemical
Details: within 20 minutes
Procedure: TEST FOR THE STABILIZING ACTIVITY OF VITAMIN E ON NADH Two beakers are prepared containing 50 g of water at a pH 4 and a constant temperature of 32° C. 10 mg of NADH are dissolved in the first beaker and agitate. The effect of the acidity deactivates the NADH, which splits up into NAD+H. Within 20 minutes, 9.5 mg of NADH are split-up, while 0.5 mg remain unchanged. In a second beaker […] of NADH and 5 mg of Vitamin E are dissolved. The effect of the acidity deactivates the NADH, which splits up into NAD+H. Within 20 minutes, 7.5 mg of NADH are split-up, while 2.5 mg of NADH remain unchanged. The parameters of pH 4 and 32° C. for a duration of 20 minutes has been chosen as the food supplement is to be assumed in the morning on an empty stomach, 30 minutes before breakfast. This leads the tablets to easily pass the physiological stomach barrier in 20 minutes, so as reach the first portion of the intestine, where it can be absorbed and enter the blood circulating system.

[1] = 20 mg NADH with 5 mg Vitamin E in 50 g water

NADH remaining unchanged (10 mg NADH alone in 50 g water): 0.5 mg
NADH split-up (into NAD+H) (10 mg NADH alone in 50 g water): 9.5 mg
NADH remaining unchanged [1]: 2.5 mg
NADH split-up (into NAD+H) [1]: 7.5 mg
Structure (SMILES): NC(=O)C1=CN([C@@H]2O[C@H](COP(=O)(O)OP(=O)(O)OC[C@H]3O[C@@H](n4cnc5c(N)ncnc54)[C@H](O)[C@@H]3O)[C@@H](O)[C@H]2O)C=CC1 [NADH, nicotinamide adenine dinucleotide in a reduced form]
